Assays:
CDK9 = molecular target: T1, CDK9 (Homo sapiens, UniProt P50750); experiment: CDK protein degradation activity (Western blotting), CDK9; format: cell-based; conditions: MDA-MB-231 cells, 16 hours, Western blot
T1 construct: endogenous in cells; host or cells: MDA-MB-231
Summary of the method: (§1)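 Protein levels were read by Western blot densitometry, tubulin serving as loading reference. Beforehand, MDA-MB-231 cells had been exposed for 16 hours to 100 nM, 1 μM or 10 μM compound, DMSO as control.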

CDK2 = molecular target: T2, CDK2 (Homo sapiens, UniProt P24941); experiment: CDK protein degradation activity (Western blotting), CDK2; format: cell-based; conditions: MDA-MB-231 cells, 16 hours, Western blot
T2 construct: endogenous in cells; host or cells: MDA-MB-231
Summary of the method: as §1

T1 sequence (P50750 whole entry): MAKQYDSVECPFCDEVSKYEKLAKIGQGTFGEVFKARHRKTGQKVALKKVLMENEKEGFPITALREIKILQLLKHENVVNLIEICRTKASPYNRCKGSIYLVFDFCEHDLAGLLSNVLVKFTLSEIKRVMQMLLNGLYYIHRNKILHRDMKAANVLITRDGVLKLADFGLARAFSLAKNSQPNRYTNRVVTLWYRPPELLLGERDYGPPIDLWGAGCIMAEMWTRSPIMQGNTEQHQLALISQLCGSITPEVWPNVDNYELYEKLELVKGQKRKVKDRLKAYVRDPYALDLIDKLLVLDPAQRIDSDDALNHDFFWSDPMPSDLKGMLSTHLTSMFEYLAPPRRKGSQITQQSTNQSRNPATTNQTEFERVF

Enzyme degradation CDK9 (% remaining) @ 0.1 μM (CDK9) | Enzyme degradation CDK9 (% remaining) @ 1 μM (CDK9) | Enzyme degradation CDK9 (% remaining) @ 10 μM (CDK9) | Enzyme degradation CDK2 (% remaining) @ 0.1 μM (CDK2) | Enzyme degradation CDK2 (% remaining) @ 1 μM (CDK2) | Enzyme degradation CDK2 (% remaining) @ 10 μM (CDK2) | Compound
80% | 10% | 0% | 20% | 0% | 0% | O=C1CC[C@H](N2C(=O)c3cccc(OCC(=O)N4CCN(CC5CCN(c6ccc(Nc7ncnc8c7ncn8C7CC(NC(=O)Cc8ccccc8)C7)cc6)CC5)CC4)c3C2=O)C(=O)N1 (stereo partly drawn) [Compound 326, N-((1s,3s)-3-(6-((4-(4-((4-(2-((2-(2,6-dioxopiperidin-3-yl)-1,3-dioxoisoindolin-4-yl)oxy)acetyl)piperazin-1-yl)methyl)piperidin-1-yl)phenyl)amino)-9H-purin-9-yl)cyclobutyl)-2-phenylacetamide]
0/0/0% | 0/0/0% | 0/0/0% | 20% | 0% | 0% | O=C1CCC(N2C(=O)c3ccc(N4CCC(CCN5CCN(c6ccc(Nc7ncnc8c7ncn8[C@H]7C[C@@H](NC(=O)Cc8ccccc8)C7)cc6)CC5)CC4)cc3C2=O)C(=O)N1 (stereo partly drawn) [Compound 327, N-((1s,3s)-3-(6-((4-(4-(2-(1-(2-(2,6-dioxopiperidin-3-yl)-1,3-dioxoisoindolin-5-yl)piperidin-4-yl)ethyl)piperazin-1-yl)phenyl)amino)-9H-purin-9-yl)cyclobutyl)-2-phenylacetamide]
0/0/0% | 0/0/0% | 0/0/0% | 40% | 50% | 40% | O=C1CC[C@H](N2C(=O)c3ccc(N4CC(C(=O)N5CCC(CCN6CCN(c7ccc(Nc8ncnc9c8ncn9C8CC(NC(=O)Cc9ccccc9)C8)cc7)CC6)CC5)C4)cc3C2=O)C(=O)N1 (stereo partly drawn) [Compound 328, N-((1s,3s)-3-(6-((4-(4-(2-(1-(1-(2-(2,6-dioxopiperidin-3-yl)-1,3-dioxoisoindolin-5-yl)azetidin-3-carbonyl)piperidin-4-yl)ethyl)piperazin-1-yl)phenyl)amino)-9H-purin-9-yl)cyclobutyl)-2-phenylacetamide]

More lines, now with the values behind:

Compound | Enzyme degradation CDK9 (% remaining) @ 0.1 μM (CDK9) | Enzyme degradation CDK9 (% remaining) @ 1 μM (CDK9) | Enzyme degradation CDK9 (% remaining) @ 10 μM (CDK9) | Enzyme degradation CDK2 (% remaining) @ 0.1 μM (CDK2) | Enzyme degradation CDK2 (% remaining) @ 1 μM (CDK2) | Enzyme degradation CDK2 (% remaining) @ 10 μM (CDK2)
O=C1CC[C@H](N2C(=O)c3ccc(N4CCN(CC5CCN(c6ccc(Nc7ncnc8c7ncn8C7CC(NC(=O)Cc8ccccc8)C7)cc6)CC5)CC4)cc3C2=O)C(=O)N1 (stereo partly drawn) [Compound 319, N-((1s,3s)-3-(6-((4-(4-((4-(2-(2,6-dioxopiperidin-3-yl)-1,3-dioxoisoindolin-5-yl)piperazin-1-yl)methyl)piperidin-1-yl)phenyl)amino)-9H-purin-9-yl)cyclobutyl)-2-phenylacetamide] | 70% | 0% | 0% | 10% | 0% | 0%
O=C1CC[C@H](n2nnc3ccc(N4CCN(CC5CCN(c6ccc(Nc7ncnc8c7ncn8C7CC(NC(=O)Cc8ccccc8)C7)cc6)CC5)CC4)cc3c2=O)C(=O)N1 (stereo partly drawn) [Compound 320, N-((1s,3s)-3-(6-((4-(4-((4-(3-(2,6-dioxopiperidin-3-yl)-4-oxo-3,4-dihydrobenzo[d][1,2,3]triazin-6-yl)piperazin-1-yl)methyl)piperidin-1-yl)phenyl)amino)-9H-purin-9-yl)cyclobutyl)-2-phenylacetamide] | 80% | 10% | 10% | 20% | 0% | 0%
O=C1CC[C@H](N2C(=O)c3cccc(NCC(=O)N4CCN(CC5CCN(c6ccc(Nc7ncnc8c7ncn8[C@H]7C[C@@H](NC(=O)Cc8ccccc8)C7)cc6)CC5)CC4)c3C2=O)C(=O)N1 [Compound 322, N-((1s,3s)-3-(6-((4-(4-((4-((2-(2,6-dioxopiperidin-3-yl)-1,3-dioxoisoindolin-4-yl)glycyl)piperazin-1-yl)methyl)piperidin-1-yl)phenyl)amino)-9H-purin-9-yl)cyclobutyl)-2-phenylacetamide] | 20% | 10% | 20% | 20% | 10% | 20%
O=C1CC[C@H](N2C(=O)c3cc(F)c(N4CCC(CCN5CCN(c6ccc(Nc7ncnc8c7ncn8C7CC(NC(=O)Cc8ccccc8)C7)cc6)CC5)CC4)cc3C2=O)C(=O)N1 (stereo partly drawn) [Compound 323, N-((1s,3s)-3-(6-((4-(4-(2-(1-(2-(2,6-dioxopiperidin-3-yl)-6-fluoro-1,3-dioxoisoindolin-5-yl)piperidin-4-yl)ethyl)piperazin-1-yl)phenyl)amino)-9H-purin-9-yl)cyclobutyl)-2-phenylacetamide] | 0/0/0% | 0/0/0% | 0/0/0% | 60% | 50% | 40%
O=C1CC[C@H](n2nnc3ccc(N4CCC(CCN5CCN(c6ccc(Nc7ncnc8c7ncn8C7CC(NC(=O)Cc8ccccc8)C7)cc6)CC5)CC4)cc3c2=O)C(=O)N1 (stereo partly drawn) [Compound 324, N-((1s,3s)-3-(6-((4-(4-(2-(1-(3-(2,6-dioxopiperidin-3-yl)-4-oxo-3,4-dihydrobenzo[d][1,2,3]triazin-6-yl)piperidin-4-yl)ethyl)piperazin-1-yl)phenyl)amino)-9H-purin-9-yl)cyclobutyl)-2-phenylacetamide] | 0/0/0% | 0/0/0% | 0/0/0% | 70% | 80% | 10%
O=C1CC[C@H](N2C(=O)c3ccc(OCC(=O)N4CCN(CC5CCN(c6ccc(Nc7ncnc8c7ncn8C7CC(NC(=O)c8c(Cl)cccc8Cl)C7)cc6)CC5)CC4)cc3C2=O)C(=O)N1 (stereo partly drawn) [Compound 325, 2,6-dichloro-N-((1s,3s)-3-(6-((4-(4-((4-(2-((2-(2,6-dioxopiperidin-3-yl)-1,3-dioxoisoindolin-5-yl)oxy)acetyl)piperazin-1-yl)methyl)piperidin-1-yl)phenyl)amino)-9H-purin-9-yl)cyclobutyl)benzamide] | 80% | 0% | 0% | 40% | 60% | 60%

From patent publication US20260125382A1, “COMPOUNDS FOR INHIBITING OR DEGRADING CDK2 AND/OR CDK9 AND MEDICINAL USE THEREOF” (KOREA RESEARCH INSTITUTE OF CHEMICAL TECHNOLOGY, priority 2022, published 2026)
